Assays:
Format in all cases: cell-based, human
HCT116 cells [1] = assay: Plate cloning experiment for proliferation of tumor cells (HCT116); conditions: untreated group 62.0±7.6
Method: (§1) Each of the HCT116 and SW-480 cells in a logarithmic growth phase was prepared into a suspension with a 10% FBS-containing cell culture medium, blown into single cells, counted, inoculated into a six-well plate at a density of 1×10^3 cells/well, and cultivated in a 5% CO2/37° C. incubator with saturated humidity until the cells were adherent to the wall. […] After the administration, the cells were often observed, and when clone spheres visible to the naked eye appeared, the cell cultivation was stopped, the supernatant was discarded, the cells were washed twice with PBS, and 1 mL of 4% paraformaldehyde (PFA) was added to conduct fixation for 20 min. The fixation solution was removed, the cells were washed 3 times with PBS, a 1% gentian violet staining solution was added to conduct staining for 30 min, and then the cells were slowly rinsed with running water to remove the staining solution, dried in an oven at 37° C., and photographed and counted. Colony-forming efficiency (CFE)=(number of cell clones/number of inoculated cells)×100%. […] The colony number was calculated for each group.

SW-480 cells [2] = assay: Plate cloning experiment for proliferation of tumor cells (SW-480); conditions: untreated group 36.1±7.5
Method: as §1

HCT116 cells [3] = assay: Apoptosis of tumor cells by flow cytometry (Annexin V-FITC/PI); conditions: 48 h after administration, untreated group 16%
Method: 48 h after administration, a supernatant in each group was removed, the cells were washed with 1×PBS 3 times and then digested with EDTA-free trypsin for 2 min, and a 10% FBS-containing cell culture medium was added to stop the digestion. The resulting suspension was collected in a centrifuge tube and centrifuged at 1,000 rpm for 3 min, and resulting cells were washed twice with 1×PBS (4° C.) and resuspended in 400 μL of an Annexin V binding solution. 5 μL of an Annexin V-FITC staining solution was added, and the cells were incubated in the dark for 15 min. 10 μL of a PI staining solution was added, and the cells were incubated in the dark for 5 min. The cells were immediately tested by FC.

SW-480 cells [4] = assay: Transwell migration experiment (SW-480); conditions: drug 15 μg/mL, 36 h, untreated group 100.0±11.7
Method: Each of the HCT116 and SW-480 cells in a logarithmic growth stage was taken and prepared into a suspension with a serum-free cell culture medium, counted, and diluted in folds, and a serum-free cell culture medium with the drug of 15 μg/mL was added. 200 μL of the suspension was inoculated into an upper chamber of a Transwell cell at a density of 1×10^5 cells/well, 500 μL of a 10% FBS-containing cell culture medium was added to a lower chamber of the Transwell cell, and the Transwell cell was incubated in a 5% CO2/37° C. incubator with saturated humidity for 36 h. The number of cells passing through the cell was counted, and cells in the upper chamber were gently wiped off with a cotton swab. Cells in the lower chamber were fixed with formaldehyde for 15 min, then stained with a 1% gentian violet staining solution for 30 min, and observed and counted under a microscope.

Compound: CO[C@H]1C[C@@H]2CC[C@@H](C)[C@@](O)(O2)C(=O)C(=O)N2CCCC[C@H]2C(=O)O[C@H]([C@H](C)C[C@@H]2CC[C@@H](O)[C@H](OC)C2)CC(=O)[C@H](C)/C=C(\C)[C@@H](O)[C@@H](OC)C(=O)[C@H](C)C[C@H](C)/C=C/C=C/C=C/1C [free RAPA, rapamycin]
- Colony number (HCT116 cells [1]): 49.2±5.2
- Colony number (SW-480 cells [2]): 33.2±3.7
- Apoptosis rate (HCT116 cells [3]): 21%
- Percentage of cells passing through the cell (SW-480 cells [4]): 57.4±10.6%

From patent US20230270676A1 (priority 2020, published 2023)
